Measured values as given in patent US9273058B2 (BRISTOL-MYERS SQUIBB COMPANY, priority 2013, dated 2016).
Like-named read-outs stand apart in the source and are kept apart here.

How the values were obtained:
CK1δ = CK1δ (Homo sapiens, UniProt P48730); experiment: CK1δ kinase assay (Caliper LabChip electrophoretic separation of fluoresceinated peptide substrate and product); type: biochemical; conditions: 200 pM CK1δ, 50 μM ATP, 1.5 μM peptide, 22 hours at room temperature; read-out: CK1δ IC50 range
In short: (§1)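 Reactions ran 22 hours at room temperature and were stopped with EDTA. Phosphorylated product and unphosphorylated substrate were then separated electrophoretically. Compounds were tested at eleven concentrations, and IC50 values came from non-linear regression.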

CK1ε = CK1ε (Homo sapiens, UniProt P49674); experiment: CK1ε kinase assay (Caliper LabChip electrophoretic separation of fluoresceinated peptide substrate and product); type: biochemical; conditions: 200 pM CK1ε, 50 μM ATP, 1.5 μM peptide, 22 hours at room temperature; read-out: CK1ε IC50 range
In short: as §1

pancreatic tumor cell [1] = conditions: in vivo; Brockschmidt et al., Gut 2008; cited from earlier work
pancreatic tumor cell [2] = conditions: in vitro; Brockschmidt et al., Gut 2008; cited from earlier work

Chain of CK1δ (P48730 whole entry): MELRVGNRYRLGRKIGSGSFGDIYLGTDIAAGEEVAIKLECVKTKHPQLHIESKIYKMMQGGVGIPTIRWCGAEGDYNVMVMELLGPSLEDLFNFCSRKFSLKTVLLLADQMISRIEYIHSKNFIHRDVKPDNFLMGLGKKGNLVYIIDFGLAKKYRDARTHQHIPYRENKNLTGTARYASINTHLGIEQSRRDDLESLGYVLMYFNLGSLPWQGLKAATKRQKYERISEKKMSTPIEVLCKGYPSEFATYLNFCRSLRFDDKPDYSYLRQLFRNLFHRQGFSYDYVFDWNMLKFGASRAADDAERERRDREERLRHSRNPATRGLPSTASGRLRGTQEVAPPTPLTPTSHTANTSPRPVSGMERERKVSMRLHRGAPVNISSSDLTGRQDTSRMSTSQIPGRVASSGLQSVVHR
Chain of CK1ε (P49674 whole entry): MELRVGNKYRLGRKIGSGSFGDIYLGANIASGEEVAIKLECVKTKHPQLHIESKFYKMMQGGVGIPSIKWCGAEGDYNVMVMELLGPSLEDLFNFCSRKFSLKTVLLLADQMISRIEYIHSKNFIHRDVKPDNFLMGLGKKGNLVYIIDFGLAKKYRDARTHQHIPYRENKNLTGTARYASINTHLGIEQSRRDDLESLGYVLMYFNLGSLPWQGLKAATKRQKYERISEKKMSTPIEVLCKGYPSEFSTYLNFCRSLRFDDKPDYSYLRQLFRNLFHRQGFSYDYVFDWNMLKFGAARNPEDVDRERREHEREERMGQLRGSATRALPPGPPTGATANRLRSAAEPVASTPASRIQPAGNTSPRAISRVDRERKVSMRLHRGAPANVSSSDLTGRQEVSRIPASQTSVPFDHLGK

| Molecule | IC50 (CK1δ) | IC50 (CK1ε) | pancreatic tumor cell growth (pancreatic tumor cell [1]) | pancreatic tumor cell growth (pancreatic tumor cell [2]) |
| --- | --- | --- | --- | --- |
| CC12CC3(C)CC(C)(C1)CC(NC(=O)N1CCn4nc(-c5ccc(Cl)c(Cl)c5)c(C(N)=O)c4C1)(C2)C3 [Compound A91, 2-(3,4-Dichlorophenyl)-N^5-((3s,5s,7s)-3,5,7-trimethyladamantan-1-yl)-6,7-dihydropyrazolo[1,5-a]pyrazine-3,5(4H)-dicarboxamide] | 0.01 to 10 nM | 0.01 to 10 nM | – | – |
| CC12CC3CC(C)(C1)CC(NC(=O)N1CCn4nc(-c5ccc(Cl)c(Cl)c5)c(C(N)=O)c4C1)(C3)C2 [Compound A92, 2-(3,4-Dichlorophenyl)-N^5-((1r,3R,5S,7r)-3,5-dimethyladamantan-1-yl)-6,7-dihydropyrazolo[1,5-a]pyrazine-3,5(4H)-dicarboxamide] | 0.01 to 10 nM | 0.01 to 10 nM | – | – |
| C[C@@]12C[C@H]3C[C@@](Cl)(C1)C[C@](NC(=O)N1CCn4nc(-c5ccc(Cl)c(Cl)c5)c(C(N)=O)c4C1)(C3)C2 [Compound A93, N^5-((1S,3R,5S,7R)-3-Chloro-5-methyladamantan-1-yl)-2-(3,4-dichlorophenyl)-6,7-dihydropyrazolo[1,5-a]pyrazine-3,5(4H)-dicarboxamide] | 0.01 to 10 nM | 0.01 to 10 nM | – | – |
| NC(=O)c1c(-c2cccc(F)c2)nn2c1CN(C(=O)NC13CCC(C(F)F)(CC1)CC3)CC2 [Compound A94, N^5-(4-(Difluoromethyl)bicyclo[2.2.2]octan-1-yl)-2-(3-fluorophenyl)-6,7-dihydropyrazolo[1,5-a]pyrazine-3,5(4H)-dicarboxamide] | 0.01 to 10 nM | 0.01 to 10 nM | – | – |
| NC(=O)c1c(-c2cccc(F)c2)nn2c1CN(C(=O)NC(CF)(CF)CF)CC2 [Compound A95, N^5-(1,3-Difluoro-2-(fluoromethyl)propan-2-yl)-2-(3-fluorophenyl)-6,7-dihydropyrazolo[1,5-a]pyrazine-3,5(4H)-dicarboxamide] | 0.01 to 10 nM | 10 to 100 nM | – | – |
| NC(=O)c1c(-c2ccc(F)c(Cl)c2)nn2c1CN(C(=O)NC1CC(F)(F)C1)C[C@@H]2CF [Compound A114, (R)-2-(3-Chloro-4-fluorophenyl)-N^5-(3,3-difluorocyclobutyl)-7-(fluoromethyl)-6,7-dihydropyrazolo[1,5-a]pyrazine-3,5(4H)-dicarboxamide] | 0.01 to 10 nM | 0.01 to 10 nM | – | – |
| C[C@H]1CN(C(=O)NC2CC(F)(F)C2)Cc2c(C(N)=O)c(-c3ccc(F)c(Cl)c3)nn21 [Compound A115, (S)-2-(3-Chloro-4-fluorophenyl)-N^5-(3,3-difluorocyclobutyl)-7-methyl-6,7-dihydropyrazolo[1,5-a]pyrazine-3,5(4H)-dicarboxamide] | 0.01 to 10 nM | 0.01 to 10 nM | – | – |
| NC(=O)c1c(-c2ccc(F)c(Cl)c2)nn2c1CN(C(=O)NC1CC(F)(F)C1)C[C@@H]2CO [Compound A116, (R)-2-(3-Chloro-4-fluorophenyl)-N^5-(3,3-difluorocyclobutyl)-7-(hydroxymethyl)-6,7-dihydropyrazolo[1,5-a]pyrazine-3,5(4H)-dicarboxamide] | 0.01 to 10 nM | 0.01 to 10 nM | – | – |
| CC(C)(C)NC(=O)N1Cc2c(C(N)=O)c(-c3ccc(F)c(Cl)c3)nn2C(C(C)(C)C)C1 (centres unmarked) [Compound A118, N^5-7-Di-tert-butyl-2-(3-chloro-4-fluorophenyl)-6,7-dihydropyrazolo[1,5-a]pyrazine-3,5(4H)-dicarboxamide] | 0.01 to 10 nM | 0.01 to 10 nM | – | – |
| CC(C)(C)NC(=O)N1Cc2c(C(N)=O)c(-c3cccc(Cl)c3)nn2C2(CC2)C1 [Compound A129, N^5-(tert-Butyl)-2′-(3-chlorophenyl)-4′H-spiro[cyclopropane-1,7′-pyrazolo[1,5-a]pyrazine]-3′,5′(6′H)-dicarboxamide] | 0.01 to 10 nM | 0.01 to 10 nM | – | – |
| CC(C)(C)NC(=O)N1Cc2c(C(N)=O)c(-c3cccc(F)c3)nn2C2(CC2)C1 [Compound A131, N^5′-(tert-Butyl)-2′-(3-fluorophenyl)-4′H-spiro[cyclopropane-1,7′-pyrazolo[1,5-a]pyrazine]-3′,5′(6′H)-dicarboxamide] | 10 to 100 nM | 10 to 100 nM | – | – |
| CC(C)(C)NC(=O)N1Cc2c(C(N)=O)c(-c3ccc(F)c(Cl)c3)nn2C2(CC2)C1 [Compound A132, N^5-(tert-Butyl)-2′-(3-chloro-4-fluorophenyl)-4′H-spiro[cyclopropane-1,7′-pyrazolo[1,5-a]pyrazine]-3′,5′(6′H)-dicarboxamide] | 0.01 to 10 nM | 0.01 to 10 nM | – | – |
| NC(=O)c1c(-c2ccc(F)c(Cl)c2)nn2c1CN(C(=O)NC1CC(F)(F)C1)CC21CC1 [Compound A133, 2′-(3-Chloro-4-fluorophenyl)-N^5′-(3,3-difluorocyclobutyl)-4′H-spiro[cyclopropane-1,7′-pyrazolo[1,5-a]pyrazine]-3′,5′(6′H)-dicarboxamide] | 0.01 to 10 nM | 0.01 to 10 nM | – | – |
| CC(C)(C)NC(=O)N1Cc2c(C(N)=O)c(-c3ccc(F)c(Cl)c3)nn2C2(COC2)C1 [Compound A134, N^5′-(tert-Butyl)-2′-(3-chloro-4-fluorophenyl)-4′H-spiro[oxetane-3,7′-pyrazolo[1,5-a]pyrazine]-3′,5′(6′H)-dicarboxamide] | 0.01 to 10 nM | 0.01 to 10 nM | – | – |
| CC(=O)N1CC2(C1)CN(C(=O)NC(C)(C)C)Cc1c(C(N)=O)c(-c3ccc(F)c(Cl)c3)nn12 [Compound A135, 1-Acetyl-N^5′-(tert-butyl)-2′-(3-chloro-4-fluorophenyl)-4′H-spiro[azetidine-3,7′-pyrazolo[1,5-a]pyrazine]-3′,5′(6′H)-dicarboxamide] | 0.01 to 10 nM | 0.01 to 10 nM | – | – |
| CC(C)(C)NC(=O)N1Cc2c(C(N)=O)c(-c3ccc(F)c(Cl)c3)nn2C(CF)(CF)C1 [Compound A136] | 0.01 to 10 nM | 0.01 to 10 nM | – | – |
| NC(=O)c1c(-c2ccc(F)c(Cl)c2)nn2c1CN(C(=O)NC13CCC(F)(CC1)C3)CC2 [Compound A137, 2-(3-Chloro-4-fluorophenyl)-N^5-(4-fluorobicyclo[2.2.1]heptan-1-yl)-6,7-dihydropyrazolo[1,5-a]pyrazine-3,5(4H)-dicarboxamide] | 0.01 to 10 nM | 0.01 to 10 nM | – | – |
| NC(=O)c1c(-c2ccc(F)c(Cl)c2)nn2c1CN(C(=O)NC13CCC(CF)(CC1)C3)CC2 [Compound A138, 2-(3-Chloro-4-fluorophenyl)-N^5-(4-(fluoromethyl)bicyclo[2.2.1]heptan-1-yl)-6,7-dihydropyrazolo[1,5-a]pyrazine-3,5(4H)-dicarboxamide] | 0.01 to 10 nM | 0.01 to 10 nM | – | – |
| NC(=O)c1c(-c2ccc(F)c(Cl)c2)nn2c1CN(C(=O)NC13CCC(C(F)F)(CC1)C3)CC2 [Compound A139, 2-(3-Chloro-4-fluorophenyl)-N^5-(4-(difluoromethyl)bicyclo[2.2.1]heptan-1-yl)-6,7-dihydropyrazolo[1,5-a]pyrazine-3,5(4H)-dicarboxamide] | 0.01 to 10 nM | 0.01 to 10 nM | – | – |
| N#CC12CCC(NC(=O)N3CCn4nc(-c5ccc(F)c(Cl)c5)c(C(N)=O)c4C3)(CC1)C2 [Compound A140, 2-(3-Chloro-4-fluorophenyl)-N^5-(4-cyanobicyclo[2.2.1]heptan-1-yl)-6,7-dihydropyrazolo[1,5-a]pyrazine-3,5(4H)-dicarboxamide] | 0.01 to 10 nM | 0.01 to 10 nM | – | – |
| COc1cc(OC)c(C=C2C(O)=Nc3ccccc32)c(OC)c1 [IC261] | – | – | reduces pancreatic tumor cell growth | reduces pancreatic tumor cell growth |
| NC(=O)c1c(-c2ccc(Cl)c(Cl)c2)nn2c1CN(C(=O)N[C@H]1C[C@H](OC(F)(F)F)C1)CC2 [compound 265] | 0.01 to 10 nM | 0.01 to 10 nM | – | – |
| NC(=O)c1c(-c2ccc(Cl)c(Cl)c2)nn2c1CN(C(=O)NC1(CF)CC(F)(F)C1)CC2 [compound 303] | 0.01 to 10 nM | 0.01 to 10 nM | – | – |
| N#CC1(NC(=O)N2CCn3nc(-c4ccc(Cl)c(Cl)c4)c(C(N)=O)c3C2)CCOC1 (centres unmarked) [compound 335] | 0.01 to 10 nM | 0.01 to 10 nM | – | – |
| N^5-(tert-Butyl)-2-(3-chloro-4-fluorophenyl)-7-(2-cyanoethyl)-6,7-dihydropyrazolo[1,5-a]pyrazine-3,5(4H)-dicarboxamide [Compound A104] | 0.01 to 10 nM | 0.01 to 10 nM | – | – |
